{
  "source": "ChEMBL document CHEMBL4138232",
  "about": "“O2-(2,4-dinitrophenyl)diazeniumdiolates derivatives: Design, synthesis, cytotoxic evaluation and reversing MDR in MCF-7/ADR cells” (Eur J Med Chem, 2018)",
  "key": {"HCT-116 [1]": {"system": "HCT-116", "assay": "Cytotoxicity against human HCT116 cells overexpressing GST-Pi assessed as inhibition of cell viability at 10 uM after 48 hrs by MTT assay relative to control", "assay_type": "functional", "details": "HCT-116, 48 h"}, "MDA-MB-231": {"system": "MDA-MB-231", "assay": "Antiproliferative activity against human MDA-MB-231 cells after 48 hrs by MTT assay relative to control", "assay_type": "functional, cell-based", "details": "MDA-MB-231, 48 h"}, "MCF-10A": {"system": "MCF-10A", "assay": "Antiproliferative activity against human MCF10A cells after 48 hrs by MTT assay relative to control", "assay_type": "cell-based"}, "[2]": {"assay": "Selectivity ratio of IC50 for human HCT116 cells to IC50 for human MDA-MB-231 cells", "assay_type": "functional"}, "[3]": {"assay": "Cytotoxicity against ADR-sensitive human MCF7 cells assessed as inhibition of cell viability at 10 uM after 48 hrs by MTT assay relative to control", "assay_type": "cell-based", "details": "read-out: INH"}, "A549": {"system": "A549", "assay": "Antiproliferative activity against human A549 cells after 48 hrs by MTT assay relative to control", "assay_type": "functional, cell-based", "details": "A549, 48 h"}, "U2OS": {"system": "U2OS", "assay": "Antiproliferative activity against human U2OS cells after 48 hrs by MTT assay relative to control", "assay_type": "functional, cell-based"}, "[4]": {"assay": "Selectivity ratio of IC50 for human MCF10A cells to IC50 for human MDA-MB-231 cells", "assay_type": "toxicity", "details": "MCF10A cells versus MDA-MB-231 cells, read-out: Ratio IC50"}, "[5]": {"assay": "Selectivity ratio of IC50 for human U2OS cells to IC50 for human MDA-MB-231 cells", "assay_type": "functional"}, "HCT-116 [6]": {"system": "HCT-116", "assay": "Antiproliferative activity against human HCT116 cells after 48 hrs by MTT assay relative to control", "assay_type": "functional, cell-based", "details": "HCT-116, 48 h"}, "Homo sapiens": {"species": "Homo sapiens", "assay": "Inhibition of MDR in human MCF7/ADR cells assessed as potentiation of adriamycin-induced antiproliferative activity by measuring fold reduction in adriamycin IC50 at 10 uM after 48 hrs by MTT assay", "assay_type": "cell-based"}, "[7]": {"assay": "Selectivity ratio of IC50 for human A549 cells to IC50 for human MDA-MB-231 cells", "assay_type": "functional"}, "MCF7": {"system": "MCF7", "assay": "Cytotoxicity against ADR-sensitive human MCF7 cells assessed as inhibition of cell viability after 48 hrs by MTT assay", "assay_type": "cell-based", "details": "MCF7, 48 h"}},
  "data": [
    {"smiles": "CCCCCOc1ccc(C2CC(c3cccc(Oc4cc(O/N=[N+](\\[O-])N5CCCCC5)c([N+](=O)[O-])cc4[N+](=O)[O-])c3)=NN2C(C)=O)cc1OC", "note": "(configuration not stated)", "values": [
      {"measurement": "inhibition at 10 µM", "setting": "HCT-116 [1]", "result": 63.7, "unit": "%"}
    ]},
    {"smiles": "CCCCCCOc1ccc(/C=C/C(=O)c2cccc(Oc3cc(O/N=[N+](\\[O-])N4CCOCC4)c([N+](=O)[O-])cc3[N+](=O)[O-])c2)cc1OC", "values": [
      {"measurement": "inhibition at 10 µM", "setting": "HCT-116 [1]", "result": 52.4, "unit": "%"}
    ]},
    {"smiles": "CN(C)c1ccc(/C=C/C(=O)c2cccc(Oc3cc(O/N=[N+](\\[O-])N4CCCCC4)c([N+](=O)[O-])cc3[N+](=O)[O-])c2)cc1", "values": [
      {"measurement": "inhibition at 10 µM", "setting": "HCT-116 [1]", "result": 65.9, "unit": "%"}
    ]},
    {"smiles": "COc1ccc(/C=C/C(=O)c2cccc(Oc3cc(O/N=[N+](\\[O-])N4CCCCC4)c([N+](=O)[O-])cc3[N+](=O)[O-])c2)cc1", "values": [
      {"measurement": "IC50", "setting": "MDA-MB-231", "result": 6.15, "unit": "µM"},
      {"measurement": "IC50", "setting": "MCF-10A", "result": 113, "unit": "µM"},
      {"measurement": "Ratio IC50", "setting": "[2]", "result": 0.9},
      {"measurement": "cytotoxicity at 48 h, 10 µM", "setting": "[3]", "result": 11.2, "unit": "%"},
      {"measurement": "IC50", "setting": "A549", "result": 8.58, "unit": "µM"},
      {"measurement": "IC50", "setting": "U2OS", "result": 9.78, "unit": "µM"},
      {"measurement": "selectivity ratio", "setting": "[4]", "result": 18.3},
      {"measurement": "Ratio IC50", "setting": "[5]", "result": 1.6},
      {"measurement": "IC50", "setting": "HCT-116 [6]", "result": 5.37, "unit": "µM"},
      {"measurement": "fold change (FC)", "setting": "Homo sapiens", "result": 1.53},
      {"measurement": "Ratio IC50", "setting": "[7]", "result": 1.4},
      {"measurement": "inhibition at 10 µM", "setting": "HCT-116 [1]", "result": 69.5, "unit": "%"},
      {"measurement": "IC50", "setting": "MCF7", "result": 71, "unit": "µM"}
    ]},
    {"smiles": "Cc1ccc(/C=C/C(=O)c2cccc(Oc3cc(O/N=[N+](\\[O-])N4CCCCC4)c([N+](=O)[O-])cc3[N+](=O)[O-])c2)cc1", "values": [
      {"measurement": "IC50", "setting": "MDA-MB-231", "result": 3.74, "unit": "µM"},
      {"measurement": "IC50", "setting": "MCF-10A", "result": 128, "unit": "µM"},
      {"measurement": "Ratio IC50", "setting": "[2]", "result": 1.7},
      {"measurement": "cytotoxicity at 48 h, 10 µM", "setting": "[3]", "result": 14.2, "unit": "%"},
      {"measurement": "IC50", "setting": "A549", "result": 5.66, "unit": "µM"},
      {"measurement": "IC50", "setting": "U2OS", "result": 5.22, "unit": "µM"},
      {"measurement": "selectivity ratio", "setting": "[4]", "result": 34.2},
      {"measurement": "Ratio IC50", "setting": "[5]", "result": 1.4},
      {"measurement": "IC50", "setting": "HCT-116 [6]", "result": 6.31, "unit": "µM"},
      {"measurement": "fold change (FC)", "setting": "Homo sapiens", "result": 51.2},
      {"measurement": "Ratio IC50", "setting": "[7]", "result": 1.5},
      {"measurement": "inhibition at 10 µM", "setting": "HCT-116 [1]", "result": 62.2, "unit": "%"},
      {"measurement": "IC50", "setting": "MCF7", "result": 59.1, "unit": "µM"}
    ]},
    {"smiles": "CCCCCCOc1ccc(C2CC(c3cccc(Oc4cc(O/N=[N+](\\[O-])N5CCCCC5)c([N+](=O)[O-])cc4[N+](=O)[O-])c3)=NN2C(C)=O)cc1OC", "note": "(configuration not stated)", "values": [
      {"measurement": "inhibition at 10 µM", "setting": "HCT-116 [1]", "result": 48, "unit": "%"}
    ]},
    {"smiles": "CCCCCOc1ccc(/C=C/C(=O)c2cccc(Oc3cc(O/N=[N+](\\[O-])N4CCCCC4)c([N+](=O)[O-])cc3[N+](=O)[O-])c2)cc1OC", "values": [
      {"measurement": "inhibition at 10 µM", "setting": "HCT-116 [1]", "result": 33, "unit": "%"}
    ]},
    {"smiles": "CCCCCOc1ccc(C2CC(c3cccc(Oc4cc(O/N=[N+](\\[O-])N5CCOCC5)c([N+](=O)[O-])cc4[N+](=O)[O-])c3)=NN2C(C)=O)cc1OC", "note": "(configuration not stated)", "values": [
      {"measurement": "cytotoxicity at 48 h, 10 µM", "setting": "[3]", "result": 21.7, "unit": "%"},
      {"measurement": "fold change (FC)", "setting": "Homo sapiens", "result": 16.8},
      {"measurement": "inhibition at 10 µM", "setting": "HCT-116 [1]", "result": 68.3, "unit": "%"},
      {"measurement": "IC50", "setting": "MCF7", "result": 35.8, "unit": "µM"}
    ]},
    {"smiles": "CN(C)c1ccc(/C=C/C(=O)c2cccc(Oc3cc(O/N=[N+](\\[O-])N4CCOCC4)c([N+](=O)[O-])cc3[N+](=O)[O-])c2)cc1", "values": [
      {"measurement": "inhibition at 10 µM", "setting": "HCT-116 [1]", "result": 57.1, "unit": "%"}
    ]},
    {"smiles": "CCCCOc1ccc(/C=C/C(=O)c2cccc(Oc3cc(O/N=[N+](\\[O-])N4CCOCC4)c([N+](=O)[O-])cc3[N+](=O)[O-])c2)cc1OC", "values": [
      {"measurement": "inhibition at 10 µM", "setting": "HCT-116 [1]", "result": 70.2, "unit": "%"}
    ]},
    {"smiles": "CCCCOc1ccc(C2CC(c3cccc(Oc4cc(O/N=[N+](\\[O-])N5CCCCC5)c([N+](=O)[O-])cc4[N+](=O)[O-])c3)=NN2C(C)=O)cc1OC", "note": "(configuration not stated)", "values": [
      {"measurement": "IC50", "setting": "MDA-MB-231", "result": 3.27, "unit": "µM"},
      {"measurement": "IC50", "setting": "MCF-10A", "result": 79.7, "unit": "µM"},
      {"measurement": "Ratio IC50", "setting": "[2]", "result": 2.4},
      {"measurement": "IC50", "setting": "A549", "result": 6.94, "unit": "µM"},
      {"measurement": "IC50", "setting": "U2OS", "result": 3.55, "unit": "µM"},
      {"measurement": "selectivity ratio", "setting": "[4]", "result": 24.4},
      {"measurement": "Ratio IC50", "setting": "[5]", "result": 1.1},
      {"measurement": "IC50", "setting": "HCT-116 [6]", "result": 7.78, "unit": "µM"},
      {"measurement": "Ratio IC50", "setting": "[7]", "result": 2.1},
      {"measurement": "inhibition at 10 µM", "setting": "HCT-116 [1]", "result": 72.9, "unit": "%"}
    ]},
    {"smiles": "CCCCCOc1ccc(/C=C/C(=O)c2cccc(Oc3cc(O/N=[N+](\\[O-])N4CCOCC4)c([N+](=O)[O-])cc3[N+](=O)[O-])c2)cc1OC", "values": [
      {"measurement": "inhibition at 10 µM", "setting": "HCT-116 [1]", "result": 66.6, "unit": "%"}
    ]},
    {"smiles": "CCCCCCOc1ccc(C2CC(c3cccc(Oc4cc(O/N=[N+](\\[O-])N5CCOCC5)c([N+](=O)[O-])cc4[N+](=O)[O-])c3)=NN2C(C)=O)cc1OC", "note": "(configuration not stated)", "values": [
      {"measurement": "inhibition at 10 µM", "setting": "HCT-116 [1]", "result": 66.7, "unit": "%"}
    ]},
    {"smiles": "CCCCOc1ccc(/C=C/C(=O)c2cccc(Oc3cc(O/N=[N+](\\[O-])N4CCCCC4)c([N+](=O)[O-])cc3[N+](=O)[O-])c2)cc1OC", "values": [
      {"measurement": "inhibition at 10 µM", "setting": "HCT-116 [1]", "result": 58.6, "unit": "%"}
    ]},
    {"smiles": "COc1ccc(CCN(C)CCCC(C#N)(c2ccc(OC)c(OC)c2)C(C)C)cc1OC", "note": "(configuration not stated)", "values": [
      {"measurement": "fold change (FC)", "setting": "Homo sapiens", "result": 29.8}
    ]},
    {"smiles": "CCCCCCOc1ccc(/C=C/C(=O)c2cccc(Oc3cc(O/N=[N+](\\[O-])N4CCCCC4)c([N+](=O)[O-])cc3[N+](=O)[O-])c2)cc1OC", "values": [
      {"measurement": "inhibition at 10 µM", "setting": "HCT-116 [1]", "result": 16.1, "unit": "%"}
    ]}
  ]
}
